# Reference: patent US20260008784A1 (VASTHERA CO., LTD., priority 2022, published 2026)
# Where two headings read alike, the source gives them in different places.
# Key:
# [1] = test system: yeast thioredoxin (Trx)/yeast Trx reductase (TR); assay: Peroxidase activity assay (H2O2 reduction, NADPH oxidation); assay type: biochemical; details: 50 μM test compound, 3 μM yeast Trx, 1.5 μM yeast TR, 250 μM NADPH, 1.2 mM H2O2, 30° C.; NADPH oxidized per minute
# Protocol: Hydrogen peroxide (H2O2)-reducing peroxidase activity of compounds in present invention was performed as follows. Peroxyredoxin activity was measured in reaction mixture (200 μL volume) containing 50 mM HEPES buffer (pH 7.0), 1 mM EDTA, 250 μM NADPH, 3 μM yeast thioredoxin (Trx), 1.5 μM yeast Trx reductase (TR), 50 μM test compound, and 1.2 mM H2O2.
# Reaction was initiated by adding H2O2 and the decrease in absorbance at 340 nm was measured using Agilent UV8453 spectrophotometry (Hewlett Packard, USA) at 30° C. for 12 min. Initial reaction rate is the amount of NADPH oxidized per minute calculated from slope of the linear part of curve.
# The H2O2-reducing peroxidase activity of the test compounds in present invention was measured in a reaction mixture containing thioredoxin (Trx)/thioredoxin reductase (TR), respectively.
# [2] = Measurement of redox potential (DTT redox buffers, HPLC); assay type: physicochemical; details: DTT(Red)/DTT(Ox) redox buffers, 3 h, 30° C., 50% reduction of test compound
# Protocol: A test compound (10 mM) was diluted 20-fold with each redox buffer solution and incubated for 3 h in a 30° C. water bath. Then, compounds were analyzed by HPLC. The area of peaks corresponding to the oxidized and reduced forms of test compound based on specific retention time was calculated and plotted as percent of total peak area against the Nernst equation value (mV) at x-axis. The Nernst equation value corresponding to 50% reduction of test compound was set as the midpoint redox potential value for test compound.
# The redox potential values of the test compounds were analyzed based on the potential values established in redox buffer solutions where reduced and oxidized DTT are mixed at various ratios.
# hepatocytes = assay: Cytotoxicity test, liver cell; details: read-out: Cell cytotoxicity (CC50) Liver cell; concentration corresponding to 50% cell viability
# Protocol: (§6) Cytotoxicity tests were performed against vascular endothelial cells, vascular smooth muscle cells and hepatocytes. After treatment with ascending concentrations of each compound, the concentration of test compound corresponding to 50% cell viability (CC50) was measured.
# [3] = test system: human aortic endothelial cells (HAEC); assay: Cytotoxicity assay (WST-1), endothelial cell; details: read-out: Cell cytotoxicity (CC50) Endothelial cell; 24 h, concentration corresponding to 50% cell viability
# Protocol: (§7) For cytotoxicity analysis, human aortic endothelial cells (HAEC) and smooth muscle cells (HASMC) were seeded in a 96-well culture plate at density of 4000 cells/well in a final volume of 100 μL. Cells were cultured for 24 h and serum-starved for an additional 18 h. Test compounds were serially diluted with EBM-2 culture medium, added to the plate at 100 μL/well, and further incubated for 24 h. The number of viable cells was measured using the WST-1 cell viability assay kit (Roche Diagnostics, USA). Cell number was expressed as absorbance values at 450 nm after subtracting the turbidity value at 600 nm. The absorbance values from three replicate wells were averaged.
# (§8) After treatment with ascending concentrations of each compound, the concentration of test compound corresponding to 50% cell viability (CC50) was measured.
# [4] = test system: human aortic smooth muscle cells (HASMC); assay: Cytotoxicity assay (WST-1), smooth muscle cell; details: read-out: Cell cytotoxicity (CC50) Smooth muscle cell; 24 h, concentration corresponding to 50% cell viability
# Protocol: as §7, §8
# [5] = Cytotoxicity assay (WST-1), smooth muscle cell; details: human, human aortic smooth muscle cells (HASMC)
# Protocol: as §7, §8
# [6] = Cytotoxicity test, liver cell; details: hepatocytes
# Protocol: as §6
# [7] = Cytotoxicity assay (WST-1), endothelial cell; details: human, human aortic endothelial cells (HAEC)
# Protocol: as §7, §8
# [8] = test system: Tyr 857 phosphorylation of PDGF receptor-β (PDGFRβ) in HASMC; assay: Immunoblot of PDGF-mediated signaling in PrxII knock-down HASMC; assay type: cell-based, human; details: HASMC depleted of PrxII expression, FIG. 2
# Protocol: (§1) Cells were quickly washed in ice-cold phosphate-buffered saline (PBS) and lysed in extraction buffer containing 20 mM Hepes (pH 7.0), 1% Triton X-100, 150 mM NaCl, 10% glycerol, 1 mM EDTA, 2 mM EGTA, and 1 mM DTT, 5 mM Na3VO4, 5 mM NaF, 1 mM AEBSF, aprotinin (5 μg/mL), and leupeptin (5 μg/mL). After cen-trifugation at 12,000×g, the clarified cell extracts were used for immunoblotting. For re-blotting, the immunoblots were retrieved in a solution of 67 mM Tris (pH 6.7), 2% SDS, and 100 mM 2-mercaptoethanol at 60° C. for 30 min to remove antibodies and rinsed three times with a Tris-buffered saline (TBS) solution containing 1% Triton X-100. The retrieved membranes were subjected to new immunoblotting.
# In human aortic smooth muscle cell (HASMC) and human pulmonary artery smooth muscle cell (PASMC) in which PrxII was knocked out by transfecting the PrxII siRNA, the ability of test compounds to replace the cellular function of PrxII was evaluated. That is, the efficacy of the new compounds was verified in terms of signaling pathways induced by PDGF that regulates the growth and migration of vascular smooth muscle cells in the aorta and pulmonary artery. Activation of PDGF-induced signaling pathway was analyzed by an immunoblot method using an antibody that specifically recognizes phosphorylation of Tyr 857, which is a major phosphorylation site on PDGF receptor (PDGFRβ).
# in vitro [9] = details: human
# Protocol: as §7, §8
# in vitro [10] = details: human; remark: listed apart in the source
# Protocol: as §7, §8
# in vitro [11] = assay: in vitro
# Protocol: as §6
# [12] = test system: Tyr 1175 phosphorylation of VEGF receptor-2 (VEGFR2) in HAEC; assay: Immunoblot of VEGF-mediated signaling in PrxII knock-down HAEC; assay type: cell-based, human; details: HAECs depleted of PrxII expression, FIG. 5
# Protocol: as §1
# In human aortic endothelial cell (HAEC) and human pulmonary artery endothelial cell (PAEC) in which PrxII was knocked out by transfecting the PrxII siRNA, the ability of test compounds to replace the cellular function of PrxII was evaluated. That is, the efficacy of the new compounds was verified in terms of signaling pathways induced by VEGF that regulates the growth and migration of vascular endothelial cells in the aorta and pulmonary artery. Activation of VEGF-induced signaling pathway was analyzed by an immunoblot method using an antibody that specifically recognizes phosphorylation of Tyr 1175, which is a major phosphorylation site on VEGF receptor-2 (VEGFR2).
# [13] = test system: human aortic smooth muscle cell (HASMC); assay: PDGF-induced proliferation assay, HASMC (PrxII siRNA); assay type: cell-based; details: for Degree of HASMC proliferation: PDGF-BB 25 ng/mL, percent of untreated control
# Protocol: (§2) HASMCs and PASMCs were transfected with a PrxII-specific siRNA using RNAi MAX transfection reagent according to manufacturer's protocol. After 24 hours, transfected cells (3,000 cells/well) were seeded in a 96-well culture plate. At 12 h after seeding, cells were serum-starved for additional 18 h in SmBM basal medium containing 0.5% FBS. Test compounds were serially diluted with the same basal medium containing 0.5% FBS, added to the cells ([…]), and incubated for 2 h. After treatment, cells were placed in fresh SmBM medium containing 0.5% FBS and PDGF-BB (25 ng/mL) for growth factor stimulation and further cultured for 24 h.
# (§3) The degree of cell proliferation was measured using the Cell Titer-GLO kit ([…]). Data are the percent of luminescence intensity averaged from three replicate wells versus that of untreated control group.
# (§4) In human aortic smooth muscle cell (HASMC) and human pulmonary artery smooth muscle cell (PASMC) in which PrxII was knocked out by transfecting the PrxII siRNA, the ability of test compounds to inhibit the PDGF-induced proliferation of vascular smooth muscle cells was evaluated. In Table 6, the degree of proliferation in the compound-treated groups is expressed as percent of the degree of proliferation in untreated control group. The concentrations of test compounds corresponding to 50% growth inhibition (IC50) is also listed.
# [14] = test system: human pulmonary artery smooth muscle cell (PASMC); assay: PDGF-induced proliferation assay, PASMC (PrxII siRNA); assay type: cell-based; details: for Degree of PASMC proliferation: PDGF-BB 25 ng/mL, percent of untreated control
# Protocol: as §2, §3, §4
# [15] = test system: human aortic endothelial cell (HAEC); assay: VEGF-induced proliferation assay, HAEC (PrxII siRNA); assay type: cell-based; details: for Degree of HAEC proliferation: VEGF-A 25 ng/mL, percent of untreated control
# Protocol: as §2, with “HAECs” for “HASMCs”, “PAECs” for “PASMCs”, “EBM” for “SmBM”, “VEGF-A” for “PDGF-BB”
# as §3
# (§5) In human aortic endothelial cell (HAEC) and human pulmonary artery endothelial cell (PAEC) in which PrxII was knocked out by transfecting the PrxII siRNA, the ability of test compounds to augment the VEGF-induced proliferation of vascular endothelial cells was evaluated. In Table 7, the degree of proliferation in the compound-treated groups is expressed as percent of the degree of proliferation in untreated control group. The effective concentrations of test compounds increasing cell proliferation by 50% (EC50) is also listed.
# [16] = test system: human pulmonary artery endothelial cell (PAEC); assay: VEGF-induced proliferation assay, PAEC (PrxII siRNA); assay type: cell-based; details: for Degree of PAEC proliferation: VEGF-A 25 ng/mL, percent of untreated control
# Protocol: as §2, with “HAECs” for “HASMCs”, “PAECs” for “PASMCs”, “EBM” for “SmBM”, “VEGF-A” for “PDGF-BB”
# as §3, §5
# [17] = reference potential values of Trx and GSH for comparison; cited from earlier work
# [18] = Homo sapiens, Endothelial cell, effective concentration increasing cell proliferation by 50%, VEGF-stimulated
compound,measurement,setting,value
"O=C1C2CSSC3(CCCN13)C(=O)N2Cc1ccccc1 (stereo not drawn) [Compound 7, 11-benzyltetrahydro-5H,7H-4,9a-(epiminomethano)pyrrolo[2,1-c][1,2,4]dithiazepine-5,10-dione]",Peroxidase activity for H2O2 reduction,[1],3.83 nmol/min
same,Midpoint redox potential (E m),[2],−300.98 mV
same,CC50,hepatocytes,> 500 µM
same,CC50,[3],> 500 µM
same,CC50,[4],> 500 µM
"CN1C(=O)C2CSSC1(C)C(=O)N2Cc1cccs1 (stereo not drawn) [Compound 14, 1,8-dimethyl-6-(thiophen-2-ylmethyl)-2,3-dithia-6,8-diazabicyclo[3.2.2]nonane-7,9-dione]",Peroxidase activity for H2O2 reduction,[1],4.78 nmol/min
same,CC50 at 24 h,[5],> 500 µM
"CN1C(=O)C2CSSC1(C)C(=O)N2Cc1nc2ccccc2s1 (stereo not drawn) [Compound 15, 6-(benzo[d]thiazol-2-ylmethyl)-1,8-dimethyl-2,3-dithia-6,8-diazabicyclo[3.2.2]nonane-7,9-dione]",CC50,[6],157 µM
same,CC50 at 24 h,[7],114 µM
same,CC50 at 24 h,[5],98.5 µM
"CN1C(=O)C2(Cc3ccccc3)SSCC1C(=O)N2C (stereo not drawn) [Compound 19, 1-benzyl-6,8-dimethyl-2,3-dithia-6,8-diazabicyclo[3.2.2]nonane-7,9-dione]",Peroxidase activity for H2O2 reduction,[1],5.69 nmol/min
same,Effect on phosphorylation of Tyr 857 on PDGFR,[8],strongly abolish the phosphorylation
same,CC50,in vitro [9],> 500 µM
same,CC50,in vitro [10],> 500 µM
same,CC50,in vitro [11],> 500 µM
CN1CCN2C(=O)C3CSSC2(C1)C(=O)N3C (stereo not drawn) [Compound 23],Peroxidase activity for H2O2 reduction,[1],8.81 nmol/min
same,Effect on phosphorylation of Tyr 857 on PDGFR,[8],strongly abolish the phosphorylation
same,Effect on phosphorylation of Tyr 1175 on VEGFR2,[12],strongly abolish the phosphorylation
same,Degree of HASMC proliferation,[13]; 2.5 nM,89.8%
same,Degree of HASMC proliferation,[13]; 5 nM,54.3%
same,Degree of HASMC proliferation,[13]; 10 nM,34.4%
same,Degree of HASMC proliferation,[13]; 25 nM,20.4%
same,IC50,"[13]; Homo sapiens, HASMC, 50% growth inhibition, PDGF-stimulated",6.85 nM
same,Degree of PASMC proliferation,[14]; 2.5 nM,70.8%
same,Degree of PASMC proliferation,[14]; 5 nM,43.3%
same,Degree of PASMC proliferation,[14]; 10 nM,32.9%
same,Degree of PASMC proliferation,[14]; 25 nM,14.6%
same,Degree of PASMC proliferation,[14]; 50 nM,3.2%
same,Degree of PASMC proliferation,[14]; 100 nM,0.0%
same,IC50,"[14]; Homo sapiens, PASMC, 50% growth inhibition, PDGF-stimulated",4.76 nM
same,Degree of HAEC proliferation,[15]; 2.5 nM,109.4%
same,Degree of HAEC proliferation,[15]; 5 nM,122.6%
same,Degree of HAEC proliferation,[15]; 10 nM,161.3%
same,Degree of HAEC proliferation,[15]; 25 nM,187.6%
same,Degree of HAEC proliferation,[15]; 50 nM,177.1%
same,Degree of HAEC proliferation,[15]; 100 nM,133.0%
same,EC50,[15]; [18],9.72 nM
same,Degree of PAEC proliferation,[16]; 2.5 nM,109.2%
same,Degree of PAEC proliferation,[16]; 5 nM,122.9%
same,Degree of PAEC proliferation,[16]; 10 nM,148.3%
same,Degree of PAEC proliferation,[16]; 25 nM,173.3%
same,Degree of PAEC proliferation,[16]; 50 nM,155.3%
same,Degree of PAEC proliferation,[16]; 100 nM,133.9%
same,EC50,[16]; [18],5.2 nM
same,CC50,in vitro [9],> 500 µM
same,CC50,in vitro [11],123 µM
N[C@@H](CCC(=O)N[C@@H](CS)C(=O)NCC(=O)O)C(=O)O [GSH],Midpoint redox potential (E m),[17],−240 mV
thioredoxin [Trx],Midpoint redox potential (E m),[17],−270 mV
